Results from patent US11427553B2, “Dihydrooxadiazinones” (Bayer Aktiengesellschaft, priority 2017, dated 2022).

Columns and labels:
[1] = system: HeLa cells; experiment: Assay 1 cell proliferation measurement (CTG, 72 h), HeLa; type: cell-based, human; settings: Homo sapiens, HeLa; Assay 1, 72 h, Cell Titer Glo; read-out: HeLa IC50 [nM] (Cervical cancer)
Method in brief: (§1)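 CTG luminescence readout after 72 h compound exposure at 37 °C; 10-point 2.5-fold dilutions from 100 nM max final; DMSO 0.3% vehicle. IC50 from 4-parameter fit, normalised to 0 h plate (max inhibition) and DMSO (min inhibition).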

[2] = system: SK-MEL-3 cells; experiment: Assay 1 cell proliferation measurement (CTG, 72 h), SK-MEL-3; type: cell-based, human; settings: Homo sapiens, SK-MEL3; Assay 1, 72 h, Cell Titer Glo; read-out: SK-MEL-3 IC50 [nM] (melanoma)
Method in brief: as §1

[3] = target: human full length PDE3A (Homo sapiens (Human), UniProt Q14432); experiment: Assay 4 PDE3A enzyme inhibition (3H-cAMP SPA); type: biochemical; settings: Sf9 cell extract
Chain of human full length PDE3A (Q14432 whole entry): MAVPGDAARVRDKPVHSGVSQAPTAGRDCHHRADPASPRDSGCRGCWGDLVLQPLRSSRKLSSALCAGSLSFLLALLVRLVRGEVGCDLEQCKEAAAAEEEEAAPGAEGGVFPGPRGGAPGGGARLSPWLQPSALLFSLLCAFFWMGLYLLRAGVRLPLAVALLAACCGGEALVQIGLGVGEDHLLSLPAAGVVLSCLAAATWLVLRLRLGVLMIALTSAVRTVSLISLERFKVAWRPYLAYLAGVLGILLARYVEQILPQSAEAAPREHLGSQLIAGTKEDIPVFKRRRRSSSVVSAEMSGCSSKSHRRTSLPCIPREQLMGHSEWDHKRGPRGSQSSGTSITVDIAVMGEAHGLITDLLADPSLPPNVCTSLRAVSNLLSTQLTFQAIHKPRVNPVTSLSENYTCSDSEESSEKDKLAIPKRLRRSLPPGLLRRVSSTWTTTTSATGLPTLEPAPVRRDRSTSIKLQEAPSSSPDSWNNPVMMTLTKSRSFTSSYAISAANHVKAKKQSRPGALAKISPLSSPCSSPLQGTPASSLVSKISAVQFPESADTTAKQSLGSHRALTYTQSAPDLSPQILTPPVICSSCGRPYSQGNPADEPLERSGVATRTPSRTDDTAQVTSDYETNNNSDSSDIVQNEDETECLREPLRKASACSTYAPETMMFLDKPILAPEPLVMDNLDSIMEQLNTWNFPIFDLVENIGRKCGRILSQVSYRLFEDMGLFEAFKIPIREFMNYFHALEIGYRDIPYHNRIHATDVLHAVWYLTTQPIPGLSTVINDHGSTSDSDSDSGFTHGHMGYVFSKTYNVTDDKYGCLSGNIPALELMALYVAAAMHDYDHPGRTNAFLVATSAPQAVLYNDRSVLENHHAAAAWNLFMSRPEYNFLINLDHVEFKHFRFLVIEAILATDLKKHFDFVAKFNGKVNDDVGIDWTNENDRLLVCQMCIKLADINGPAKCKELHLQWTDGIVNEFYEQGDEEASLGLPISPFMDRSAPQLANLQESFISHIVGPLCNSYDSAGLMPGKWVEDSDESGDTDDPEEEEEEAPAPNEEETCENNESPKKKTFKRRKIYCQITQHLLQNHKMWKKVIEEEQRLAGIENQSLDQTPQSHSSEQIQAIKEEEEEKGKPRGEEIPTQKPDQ
Method in brief: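 Enzyme: Sf9 extract with overexpressed full-length PDE3A; substrate [8-3H]cAMP, 0.025 μCi/well; 60 min, room temperature, Tris/HCl pH 7.5 buffer with MgCl2, EDTA, BSA.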

[4] = target: human full length PDE3B (Homo sapiens (Human), UniProt Q13370); experiment: Assay 5 PDE3B enzyme inhibition (3H-cAMP SPA); type: biochemical; settings: Sf9 cell extract
Chain of human full length PDE3B (Q13370 whole entry): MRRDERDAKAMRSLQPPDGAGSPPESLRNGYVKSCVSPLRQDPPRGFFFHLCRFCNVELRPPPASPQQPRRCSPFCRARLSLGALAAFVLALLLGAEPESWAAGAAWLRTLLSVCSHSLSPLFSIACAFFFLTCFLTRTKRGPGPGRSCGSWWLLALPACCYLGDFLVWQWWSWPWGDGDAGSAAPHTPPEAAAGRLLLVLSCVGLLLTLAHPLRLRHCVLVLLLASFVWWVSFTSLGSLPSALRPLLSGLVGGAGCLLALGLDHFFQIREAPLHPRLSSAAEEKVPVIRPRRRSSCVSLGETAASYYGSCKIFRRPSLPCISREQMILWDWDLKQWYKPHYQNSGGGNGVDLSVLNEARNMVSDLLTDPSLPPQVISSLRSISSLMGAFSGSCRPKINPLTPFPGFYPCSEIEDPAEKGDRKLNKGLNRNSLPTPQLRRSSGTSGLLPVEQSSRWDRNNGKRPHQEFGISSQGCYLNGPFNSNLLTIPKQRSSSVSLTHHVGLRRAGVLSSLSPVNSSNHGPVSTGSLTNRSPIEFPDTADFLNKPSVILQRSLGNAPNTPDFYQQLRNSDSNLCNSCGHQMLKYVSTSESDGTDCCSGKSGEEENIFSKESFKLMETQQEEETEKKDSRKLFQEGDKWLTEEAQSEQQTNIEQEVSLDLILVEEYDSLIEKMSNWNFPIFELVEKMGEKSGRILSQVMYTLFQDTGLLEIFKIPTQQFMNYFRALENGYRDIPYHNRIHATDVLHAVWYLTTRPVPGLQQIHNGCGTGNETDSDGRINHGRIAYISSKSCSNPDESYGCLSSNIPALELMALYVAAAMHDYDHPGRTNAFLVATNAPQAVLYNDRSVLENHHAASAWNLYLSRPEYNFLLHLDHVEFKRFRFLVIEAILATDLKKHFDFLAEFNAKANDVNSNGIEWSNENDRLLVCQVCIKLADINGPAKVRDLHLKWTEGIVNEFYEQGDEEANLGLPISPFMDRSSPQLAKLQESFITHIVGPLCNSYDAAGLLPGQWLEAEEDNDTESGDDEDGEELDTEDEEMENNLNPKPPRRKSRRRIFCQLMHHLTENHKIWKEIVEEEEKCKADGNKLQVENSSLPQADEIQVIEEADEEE
Method in brief: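 Compounds in DMSO are mixed with diluted PDE3B extract from Sf9 cells, and reactions start on adding tritiated cAMP. After 60 min at room temperature, yttrium scintillation proximity beads terminate hydrolysis and signal is counted; IC50 values come from sigmoidal dose-response curves.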

Row | IC50 [1] [nM] | IC50 [2] [nM] | IC50 [3] [nM] | IC50 [4] [nM] | SMILES
1 | 25 | 46 | 18 | 41 | Cn1cnc2ccc(-c3ccc(C4=NNC(=O)OC4)cc3C(F)(F)F)cc21 [Example 73, 5-[4-(1-Methyl-1H-benzimidazol-6-yl)-3-(trifluoromethyl)phenyl]-3,6-dihydro-2H-1,3,4-oxadiazin-2-one]
2 | 23 | 39 | 280 | 320 | O=C1NN=C(c2ccc(-c3ccc(C(F)(F)F)nc3)c(C(F)(F)F)c2)CO1 [Example 36, 5-{3-(Trifluoromethyl)-4-[6-(trifluoromethyl)pyridin-3-yl]phenyl}-3,6-dihydro-2H-1,3,4-oxadiazin-2-one]
3 | 13 | 20 | 270 | 510 | Nc1cc(-c2ccc(C3=NNC(=O)OC3)cc2OC(F)(F)F)ccc1F [Example 60, 5-[3′-Amino-4′-fluoro-2-(trifluoromethoxy)biphenyl-4-yl]-3,6-dihydro-2H-1,3,4-oxadiazin-2-one]
4 | 19 | 48 | 150 | 320 | CCc1ccccc1-c1ccc(C2=NNC(=O)OC2)cc1F [Example 84, 5-(2′-Ethyl-2-fluorobiphenyl-4-yl)-3,6-dihydro-2H-1,3,4-oxadiazin-2-one]
5 | 55 | 68 | 440 | 650 | O=C1NN=C(c2ccc(-c3ccc(C(F)(F)F)s3)c(C(F)(F)F)c2)CO1 [Example 156, 5-{3-(Trifluoromethyl)-4-[5-(trifluoromethyl)thiophen-2-yl]phenyl}-3,6-dihydro-2H-1,3,4-oxadiazin-2-one]
6 | 3 | 9 | 86 | 77 | O=C1NN=C(c2ccc(C3=CCCC3)c(C(F)F)c2)CO1 [Example 201, 5-[4-(Cyclopent-1-en-1-yl)-3-(difluoromethyl)phenyl]-3,6-dihydro-2H-1,3,4-oxadiazin-2-one]
7 | 8 | 13 | 58 | 97 | O=C1NN=C(c2ccc(NCC3(O)CCC3)c(C(F)(F)F)c2)CO1 [Example 219, 5-[4-{[(1-Hydroxycyclobutyl)methyl]amino}-3-(trifluoromethyl)phenyl]-3,6-dihydro-2H-1,3,4-oxadiazin-2-one]
8 | 81 | 19800 | 260 | 210 | Cn1c(C#N)ccc1-c1ccc(C2=NNC(=O)OC2)cc1C(F)(F)F [Example 50, 1-Methyl-5-[4-(2-oxo-3,6-dihydro-2H-1,3,4-oxadiazin-5-yl)-2-(trifluoromethyl)phenyl]-1H-pyrrole-2-carbonitrile]
9 | 9 | 32 | 50 | 46 | CC(C)n1cc(-c2ccc(C3=NNC(=O)OC3)cc2C(F)F)cn1 [Example 263, 5-{3-(Difluoromethyl)-4-[1-(propan-2-yl)-1H-pyrazol-4-yl]phenyl}-3,6-dihydro-2H-1,3,4-oxadiazin-2-one]
10 | 20 | 58 | 31 | 30 | Cc1cc(C2=NNC(=O)OC2)ccc1-c1ccc(=O)[nH]c1 [Example 12, 5-[3-Methyl-4-(6-oxo-1,6-dihydropyridin-3-yl)phenyl]-3,6-dihydro-2H-1,3,4-oxadiazin-2-one]
11 | 1 | 3 | 34 | 110 | O=C1NN=C(c2ccc(NC[C@@H]3CCCO3)c(C(F)(F)F)c2)CO1 [Example 259, 5-[4-({[(2S)-Oxolan-2-yl]methyl}amino)-3-(trifluoromethyl)phenyl]-3,6-dihydro-2H-1,3,4-oxadiazin-2-one]
12 | > 100 | > 100 | 56 | 150 | Cc1nc2cc(-c3ccc(C4=NNC(=O)OC4)cc3C(F)(F)F)ccc2s1 [Example 325, 5-[4-(2-methyl-1,3-benzothiazol-5-yl)-3-(trifluoromethyl)phenyl]-3,6-dihydro-2H-1,3,4-oxadiazin-2-one]
